Tests used:
Male Wistar rats = experiment: Test 1: Rose Bengal/green light photo-illumination of the cochlear lateral wall, compound action potential (CAP) recorded by electrocochleography; assay type: in vivo; details: 0.3 mg/kg injected intravenously 10 minutes prior to photo-illumination; 6 animals; vehicle only 12.0 min.
Method: Male Wistar rats (body weights 240 - 260 g) were anesthetized with pentobarbital. After tracheotomy, the animals were artificially ventilated with a Harvard 683 respirator. A solution of Rose Bengal (RB) in saline (10 mg/ml) was infused into the femoral vein at a speed of 24 µmoles/kg per hour. After initiation of Rose Bengal infusion, the left middle ear was opened and, for electrocochleography, the round window lead electrode was fixed in position. Thus, after incision of the skin and muscle of the neck region, the tympanic cavity was drilled with a miniature drill and a silver ball electrode was placed on the round window membrane for use as an active electrode. An indifferent electrode was placed in the middle of the back of the head. Thirty minutes after initiation of Rose Bengal infusion, the lateral wall of the cochlea was irradiated with a green light (540 nm) conducted from a light source (L-3306-01A, Hamamatsu Photonics) through an optical fiber. Using a manipulator, the free end of the optical fiber was fixed about 5 mm away from the lateral wall of the cochlea. In this arrangement, the compound action potential (CAP) was recorded at 1-minute intervals. The electrocochleogram was recorded with Nihon Kohden Neuropack II by averaging 128 clicks of 8 kHz at a sound pressure level of 100 dB. […]

Rats = experiment: Test 2: Rose Bengal/green light photoillumination of the oval window, nystagmus test and swimming test for imbalance 24 hours later; assay type: in vivo; details: 0.03 mg/kg intravenously at the beginning of photoillumination, 12 animals, dosage 0: 100 %
Method: Rats were anesthetized with pentobarbital, and with the body temperature maintained at 37°C with a heating pad, an aqueous solution of Rose Bengal was continuously infused into the femoral vein. The […] was then opened and the tympanic membrane, incus and malleus were removed taking care not to impair the inner ear.
Using a Hamamatsu Photonic xenon lamp, the oval window was irradiated with a green light of 540 nm via an optical fiber. Using a manipulator, the end of the fiber was fixed about 3 mm from the lateral wall of the cochlea.
Photoillumination was started 20 minutes after the beginning of Rose Bengal infusion and a solution of the test compound in polyethylene glycol (400)-water (1:1, v/v) was intravenously administered at the beginning of photoillumination. After 40 minutes of irradiation, both the photoillumination and Rose Bengal infusion were terminated, the wound was sutured, and the animal was allowed to regain consciousness. At 24 hours after termination of photoillumination, a nystagmus test and a swimming test for imbalance were performed.

Compound: COC(=O)C1=C(C#N)NC(C)=C(C(=O)OC(C)C)C1c1cccc([N+](=O)[O-])c1 (stereo not drawn) [dihydropyridine compound A, Isopropyl 6-cyano-5-methoxycarbonyl-2-methyl-4-(3-nitrophenyl)-1,4-dihydropyridine-3-carboxylate]
- Action potential disappearance time (Male Wistar rats): 14.5 min
- Incidence (%) imbalance (Rats; swimming test 24 hours after termination of photoillumination): 58.3%
- Incidence (%) Nystagmus (Rats; tested 24 hours after termination of photoillumination): 58.3%
